Measurements as given in ChEMBL document CHEMBL5465560, “Selectivity Literature for EUbOPEN Chemogenomic Library” (2024).

Columns and labels:
[1] = test system: Receptor-type tyrosine-protein kinase FLT3 (Homo sapiens), P36888 [UNDEFINED MUTATION]; test: Selectivity interaction (KinomeScan (DiscoverX)) EUB0000229b FLT3; conditions: at 1 µM
[2] = target: 4-aminobutyrate aminotransferase, mitochondrial (Homo sapiens, UniProt P80404); test: Selectivity interaction (GPCR panel (PDSP screen)) EUB0000311b ABAT
[3] = target: 5'-AMP-activated protein kinase catalytic subunit alpha-2 (Homo sapiens) (UniProt P54646); test: Selectivity interaction (KinomeScan (DiscoverX)) EUB0000045b PRKAA2
[4] = target: T1, Serine/threonine-protein kinase BRSK2 (Homo sapiens) (UniProt Q8IWQ3); test: Selectivity interaction (KinomeScan (DiscoverX)) EUB0000666a BRSK2; conditions: at 10 µM
T1 sequence (whole entry): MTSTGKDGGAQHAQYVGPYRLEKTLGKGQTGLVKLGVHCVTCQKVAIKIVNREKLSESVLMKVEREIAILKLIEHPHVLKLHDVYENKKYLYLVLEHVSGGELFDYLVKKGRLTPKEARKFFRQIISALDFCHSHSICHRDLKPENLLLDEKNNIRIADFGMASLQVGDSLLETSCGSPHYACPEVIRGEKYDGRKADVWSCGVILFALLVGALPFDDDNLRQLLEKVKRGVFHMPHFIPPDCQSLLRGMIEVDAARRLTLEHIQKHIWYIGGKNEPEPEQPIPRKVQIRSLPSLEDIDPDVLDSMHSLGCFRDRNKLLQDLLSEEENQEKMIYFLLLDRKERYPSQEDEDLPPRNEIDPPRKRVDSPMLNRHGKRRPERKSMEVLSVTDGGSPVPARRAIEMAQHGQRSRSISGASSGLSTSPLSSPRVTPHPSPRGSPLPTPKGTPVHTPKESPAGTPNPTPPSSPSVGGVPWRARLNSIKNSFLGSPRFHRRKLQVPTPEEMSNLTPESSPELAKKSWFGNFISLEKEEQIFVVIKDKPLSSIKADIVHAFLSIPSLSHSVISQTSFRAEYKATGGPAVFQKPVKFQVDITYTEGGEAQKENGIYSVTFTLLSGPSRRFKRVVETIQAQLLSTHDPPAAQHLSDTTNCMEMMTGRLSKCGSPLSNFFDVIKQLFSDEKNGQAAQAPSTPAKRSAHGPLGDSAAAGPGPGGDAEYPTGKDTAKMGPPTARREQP

[5] = target: T2, Ephrin type-B receptor 4 (Homo sapiens) (UniProt P54760); test: Selectivity interaction (KinomeScan (DiscoverX)) EUB0000666a EPHB4; conditions: at 10 µM
T2 sequence (whole entry): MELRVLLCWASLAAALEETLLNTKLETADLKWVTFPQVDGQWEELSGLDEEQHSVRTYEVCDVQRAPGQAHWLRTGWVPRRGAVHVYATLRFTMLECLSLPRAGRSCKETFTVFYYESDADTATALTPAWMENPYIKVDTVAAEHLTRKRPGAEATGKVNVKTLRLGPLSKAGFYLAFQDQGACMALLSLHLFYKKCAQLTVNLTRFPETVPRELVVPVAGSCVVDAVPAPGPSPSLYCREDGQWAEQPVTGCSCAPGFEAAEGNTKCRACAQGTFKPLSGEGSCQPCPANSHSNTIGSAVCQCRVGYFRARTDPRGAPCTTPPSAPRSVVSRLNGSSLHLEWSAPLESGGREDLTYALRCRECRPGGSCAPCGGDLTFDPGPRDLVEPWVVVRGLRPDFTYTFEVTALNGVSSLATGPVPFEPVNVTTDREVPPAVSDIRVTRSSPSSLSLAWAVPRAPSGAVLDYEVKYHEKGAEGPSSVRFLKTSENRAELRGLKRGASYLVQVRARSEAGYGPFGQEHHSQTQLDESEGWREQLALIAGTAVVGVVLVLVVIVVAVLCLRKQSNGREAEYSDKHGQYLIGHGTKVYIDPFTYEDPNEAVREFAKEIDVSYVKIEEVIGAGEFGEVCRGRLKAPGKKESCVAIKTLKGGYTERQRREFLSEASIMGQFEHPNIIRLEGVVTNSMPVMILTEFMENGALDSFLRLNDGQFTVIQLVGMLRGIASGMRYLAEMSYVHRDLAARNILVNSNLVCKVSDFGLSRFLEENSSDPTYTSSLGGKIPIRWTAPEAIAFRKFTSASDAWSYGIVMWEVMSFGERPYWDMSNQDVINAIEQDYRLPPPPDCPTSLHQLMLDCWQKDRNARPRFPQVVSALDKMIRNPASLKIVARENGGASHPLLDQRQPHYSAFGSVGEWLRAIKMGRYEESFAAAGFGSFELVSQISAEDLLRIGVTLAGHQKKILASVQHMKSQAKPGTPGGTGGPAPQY

[6] = target: Mitogen-activated protein kinase 1 (Homo sapiens, UniProt P28482); conditions: at 10 µM
[7] = target: Calcium/calmodulin-dependent protein kinase type 1D (Homo sapiens) (UniProt Q8IU85); test: Selectivity interaction (KinomeScan (DiscoverX)) EUB0000607a CAMK1D; conditions: at 10 µM
[8] = target: Leukocyte tyrosine kinase receptor (Homo sapiens, UniProt P29376); test: Selectivity interaction (KinomeScan (DiscoverX)) EUB0000618a LTK; conditions: at 10 µM
[9] = target: Tyrosine-protein kinase Fyn (Homo sapiens) (UniProt P06241); test: Selectivity interaction (ActivX KiNativ screen (kinase selectivity in THP-1 cell lysates)) EUB0000639a FYN; assay type: subcellular; conditions: lysate, at 0.01 µM
[10] = target: Mitogen-activated protein kinase 8 (Homo sapiens, UniProt P45983); test: Selectivity interaction (Kinase panel (Invitrogen)) EUB0000639a MAPK8; conditions: at 200 nM
[11] = target: Cyclin-dependent kinase 9 (Homo sapiens, UniProt P50750); test: Selectivity interaction (Ambit KINOMEscan and KiNATiv profiling in Jurkat cells) EUB0000090b CDK9; assay type: cell-based; conditions: at 1 µM
Cyclin-dependent kinase 9, sequence (P50750 whole entry): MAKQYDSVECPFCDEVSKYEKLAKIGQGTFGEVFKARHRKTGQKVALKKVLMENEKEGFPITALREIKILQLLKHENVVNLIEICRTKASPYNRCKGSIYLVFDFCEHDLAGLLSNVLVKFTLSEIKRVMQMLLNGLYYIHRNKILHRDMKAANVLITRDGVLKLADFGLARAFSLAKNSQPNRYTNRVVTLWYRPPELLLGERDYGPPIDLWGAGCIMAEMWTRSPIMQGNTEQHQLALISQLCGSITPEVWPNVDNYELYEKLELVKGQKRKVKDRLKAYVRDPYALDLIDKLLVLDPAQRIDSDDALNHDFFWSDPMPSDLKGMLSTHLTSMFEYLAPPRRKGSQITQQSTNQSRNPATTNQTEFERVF

5'-AMP-activated protein kinase catalytic subunit alpha-2 (Homo sapiens), sequence (P54646 whole entry, looked up): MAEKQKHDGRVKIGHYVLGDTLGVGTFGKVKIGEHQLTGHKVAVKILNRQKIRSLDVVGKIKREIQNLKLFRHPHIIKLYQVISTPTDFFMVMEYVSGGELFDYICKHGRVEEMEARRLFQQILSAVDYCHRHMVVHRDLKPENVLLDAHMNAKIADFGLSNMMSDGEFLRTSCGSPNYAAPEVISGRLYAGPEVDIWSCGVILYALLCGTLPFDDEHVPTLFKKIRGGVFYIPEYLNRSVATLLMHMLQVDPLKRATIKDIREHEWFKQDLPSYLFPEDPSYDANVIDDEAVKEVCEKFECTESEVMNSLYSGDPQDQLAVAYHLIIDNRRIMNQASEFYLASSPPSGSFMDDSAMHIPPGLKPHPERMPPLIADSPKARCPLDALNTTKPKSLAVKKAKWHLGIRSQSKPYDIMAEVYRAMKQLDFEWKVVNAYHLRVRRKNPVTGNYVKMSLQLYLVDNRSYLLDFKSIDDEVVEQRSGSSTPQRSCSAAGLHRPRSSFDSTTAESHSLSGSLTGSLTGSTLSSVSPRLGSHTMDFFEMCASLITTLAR
Receptor-type tyrosine-protein kinase FLT3 (Homo sapiens), P36888 [UNDEFINED MUTATION], sequence (P36888 whole entry, looked up, change not shown): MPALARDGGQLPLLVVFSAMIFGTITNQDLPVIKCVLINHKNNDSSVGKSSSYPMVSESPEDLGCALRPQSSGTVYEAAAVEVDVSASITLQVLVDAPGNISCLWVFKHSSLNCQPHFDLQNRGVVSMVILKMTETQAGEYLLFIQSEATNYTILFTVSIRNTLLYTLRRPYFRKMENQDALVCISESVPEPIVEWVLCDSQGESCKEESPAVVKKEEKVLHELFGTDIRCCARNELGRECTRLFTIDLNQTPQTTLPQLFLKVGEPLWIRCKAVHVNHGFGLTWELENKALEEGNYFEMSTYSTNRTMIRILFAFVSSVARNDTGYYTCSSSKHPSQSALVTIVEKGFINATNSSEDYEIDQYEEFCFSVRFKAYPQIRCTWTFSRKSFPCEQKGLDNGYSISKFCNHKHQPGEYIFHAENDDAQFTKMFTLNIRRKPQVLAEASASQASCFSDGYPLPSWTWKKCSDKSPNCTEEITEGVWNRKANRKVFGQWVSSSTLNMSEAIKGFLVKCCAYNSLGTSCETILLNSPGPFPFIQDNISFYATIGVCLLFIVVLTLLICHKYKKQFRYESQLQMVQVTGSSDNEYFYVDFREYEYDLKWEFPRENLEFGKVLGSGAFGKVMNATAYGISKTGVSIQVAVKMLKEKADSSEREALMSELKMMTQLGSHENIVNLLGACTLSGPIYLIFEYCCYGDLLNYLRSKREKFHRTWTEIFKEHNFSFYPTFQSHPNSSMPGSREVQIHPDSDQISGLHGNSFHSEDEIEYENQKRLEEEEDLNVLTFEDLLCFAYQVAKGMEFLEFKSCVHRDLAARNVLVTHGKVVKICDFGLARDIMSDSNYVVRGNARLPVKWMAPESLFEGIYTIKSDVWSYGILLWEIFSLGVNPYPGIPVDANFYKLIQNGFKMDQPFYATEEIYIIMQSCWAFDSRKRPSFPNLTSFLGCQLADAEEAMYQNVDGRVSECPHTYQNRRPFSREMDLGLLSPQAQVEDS
Mitogen-activated protein kinase 8, sequence (P45983 whole entry): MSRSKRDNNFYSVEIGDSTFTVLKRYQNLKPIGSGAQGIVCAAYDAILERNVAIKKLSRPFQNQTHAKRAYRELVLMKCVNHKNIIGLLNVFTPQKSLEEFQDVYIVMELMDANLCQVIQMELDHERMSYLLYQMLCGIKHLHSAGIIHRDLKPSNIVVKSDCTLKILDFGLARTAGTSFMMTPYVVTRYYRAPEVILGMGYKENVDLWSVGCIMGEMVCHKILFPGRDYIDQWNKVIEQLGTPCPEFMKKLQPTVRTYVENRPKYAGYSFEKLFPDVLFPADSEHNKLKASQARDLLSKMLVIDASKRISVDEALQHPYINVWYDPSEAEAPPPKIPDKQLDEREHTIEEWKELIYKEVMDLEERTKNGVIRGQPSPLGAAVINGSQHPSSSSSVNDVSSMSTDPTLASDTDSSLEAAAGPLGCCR
Tyrosine-protein kinase Fyn (Homo sapiens), sequence (P06241 2-537 limits assumed): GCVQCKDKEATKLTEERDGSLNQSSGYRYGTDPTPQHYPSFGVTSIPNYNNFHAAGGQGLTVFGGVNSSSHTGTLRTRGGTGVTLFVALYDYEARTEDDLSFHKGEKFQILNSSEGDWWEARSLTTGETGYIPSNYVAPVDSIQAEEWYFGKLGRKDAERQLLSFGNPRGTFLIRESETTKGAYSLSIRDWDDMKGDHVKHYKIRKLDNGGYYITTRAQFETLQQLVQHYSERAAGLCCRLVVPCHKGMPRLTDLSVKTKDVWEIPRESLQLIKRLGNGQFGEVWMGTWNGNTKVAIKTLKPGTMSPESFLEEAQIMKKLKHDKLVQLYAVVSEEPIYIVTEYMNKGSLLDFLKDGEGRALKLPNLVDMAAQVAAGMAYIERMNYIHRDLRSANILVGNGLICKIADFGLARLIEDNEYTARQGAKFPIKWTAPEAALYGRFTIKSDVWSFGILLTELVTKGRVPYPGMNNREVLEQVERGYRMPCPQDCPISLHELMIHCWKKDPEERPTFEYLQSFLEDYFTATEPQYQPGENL
Leukocyte tyrosine kinase receptor, sequence (P29376 whole entry): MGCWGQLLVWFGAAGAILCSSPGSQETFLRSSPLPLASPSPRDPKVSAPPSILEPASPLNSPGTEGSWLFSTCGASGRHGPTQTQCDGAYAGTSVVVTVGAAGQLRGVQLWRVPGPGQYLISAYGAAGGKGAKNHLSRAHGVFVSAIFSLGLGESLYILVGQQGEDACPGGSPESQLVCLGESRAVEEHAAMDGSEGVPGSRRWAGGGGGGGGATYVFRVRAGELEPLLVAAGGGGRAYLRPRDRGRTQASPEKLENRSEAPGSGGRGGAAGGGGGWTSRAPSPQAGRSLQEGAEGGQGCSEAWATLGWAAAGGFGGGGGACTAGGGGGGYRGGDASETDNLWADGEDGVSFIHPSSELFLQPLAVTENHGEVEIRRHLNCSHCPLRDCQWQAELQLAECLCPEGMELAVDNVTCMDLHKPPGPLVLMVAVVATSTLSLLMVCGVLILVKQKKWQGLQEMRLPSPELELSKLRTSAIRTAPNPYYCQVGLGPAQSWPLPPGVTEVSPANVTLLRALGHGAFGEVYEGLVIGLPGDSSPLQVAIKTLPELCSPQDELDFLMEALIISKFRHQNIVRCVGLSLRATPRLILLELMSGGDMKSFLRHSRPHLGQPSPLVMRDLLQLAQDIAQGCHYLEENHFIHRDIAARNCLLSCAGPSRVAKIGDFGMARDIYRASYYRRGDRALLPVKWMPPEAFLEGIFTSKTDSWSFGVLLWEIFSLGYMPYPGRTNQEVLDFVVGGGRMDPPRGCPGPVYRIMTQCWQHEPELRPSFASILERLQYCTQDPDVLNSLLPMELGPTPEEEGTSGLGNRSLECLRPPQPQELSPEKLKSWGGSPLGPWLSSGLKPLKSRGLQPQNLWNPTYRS
4-aminobutyrate aminotransferase, mitochondrial, sequence (P80404 whole entry): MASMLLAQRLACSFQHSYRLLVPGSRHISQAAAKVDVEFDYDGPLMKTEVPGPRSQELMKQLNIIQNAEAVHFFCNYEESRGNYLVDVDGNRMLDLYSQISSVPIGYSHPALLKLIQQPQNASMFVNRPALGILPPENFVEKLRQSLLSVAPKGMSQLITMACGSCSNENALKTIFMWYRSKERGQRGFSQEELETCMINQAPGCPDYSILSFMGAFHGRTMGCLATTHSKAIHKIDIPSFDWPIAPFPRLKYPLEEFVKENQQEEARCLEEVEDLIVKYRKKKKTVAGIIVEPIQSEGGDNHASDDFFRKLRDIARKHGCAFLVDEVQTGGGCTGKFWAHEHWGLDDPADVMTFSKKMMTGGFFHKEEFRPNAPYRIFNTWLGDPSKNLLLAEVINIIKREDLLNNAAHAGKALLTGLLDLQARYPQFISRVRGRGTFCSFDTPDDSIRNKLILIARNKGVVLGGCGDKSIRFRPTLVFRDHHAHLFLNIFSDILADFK
Mitogen-activated protein kinase 1, sequence (P28482 whole entry): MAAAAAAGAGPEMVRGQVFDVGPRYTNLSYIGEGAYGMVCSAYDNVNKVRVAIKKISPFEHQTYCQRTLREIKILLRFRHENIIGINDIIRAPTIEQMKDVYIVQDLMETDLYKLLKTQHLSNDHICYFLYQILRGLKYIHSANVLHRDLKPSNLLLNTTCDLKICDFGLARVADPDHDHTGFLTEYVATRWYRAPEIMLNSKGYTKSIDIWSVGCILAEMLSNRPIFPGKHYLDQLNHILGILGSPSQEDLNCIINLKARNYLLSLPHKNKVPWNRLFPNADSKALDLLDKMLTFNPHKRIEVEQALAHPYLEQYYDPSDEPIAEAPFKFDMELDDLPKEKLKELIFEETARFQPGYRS
Calcium/calmodulin-dependent protein kinase type 1D (Homo sapiens), sequence (Q8IU85 whole entry, looked up): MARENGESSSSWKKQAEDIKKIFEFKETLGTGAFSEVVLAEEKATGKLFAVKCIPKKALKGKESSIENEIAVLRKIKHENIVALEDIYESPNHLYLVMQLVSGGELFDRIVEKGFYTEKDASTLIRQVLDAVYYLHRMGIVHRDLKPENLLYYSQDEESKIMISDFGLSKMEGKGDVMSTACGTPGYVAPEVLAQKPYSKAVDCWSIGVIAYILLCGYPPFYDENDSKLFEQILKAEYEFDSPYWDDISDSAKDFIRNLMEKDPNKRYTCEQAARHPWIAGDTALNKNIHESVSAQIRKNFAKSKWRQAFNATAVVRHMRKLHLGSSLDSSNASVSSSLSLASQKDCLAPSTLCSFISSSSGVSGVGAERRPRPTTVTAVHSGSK

**Q.** For `COc1cc(N(C)c2ccnc3ccc(C(F)(F)F)cc23)cc(OC)c1OC`, which % binding [1] is on record?
**A.** 93%

**Q.** `CCc1ccccc1C(=O)Nc1n[nH]c2c(C)c(F)c(C3C(C#N)=C(C)N(C)C(C)=C3C#N)cc12` [BAY-3827] was tested. Which Ki [2] did it give?
**A.** 222 nM

**Q.** Which results are given for `C=CC(=O)Nc1cc(-n2c(=O)ccc3cnc4ccc(-c5ccc(NS(C)(=O)=O)cc5)cc4c32)ccc1C`?
**A.** % of control ([3]; at 1 µM): 92%; % of control ([3]; at 10 µM): 92%

**Q.** `O=C(NOC[C@H](O)CO)c1ccc(F)c(F)c1Nc1ccc(I)cc1F` was tested. Which % of control [4] did it give?
**A.** 100%

**Q.** What about the % of control [5] of the same molecule?
**A.** 100%

**Q.** How did the % of control [6] turn out when `Cc1cc([C@@H](C)Nc2ccccc2C(=O)O)c2nc(N3CCOCC3)cc(=O)n2c1` [AZD-6482] was run?
**A.** 100%

**Q.** Which % of control [7] does the source give for `CNC(=O)Nc1ccc(-c2nc(N3CC4CCC(C3)O4)c3cnn(C4CCC5(CC4)OCCO5)c3n2)cc1` here?
**A.** 95%

**Q.** `O[C@H]1CC[C@H](Nc2ncc3nc(Nc4c(F)cc(F)cc4F)n([C@H]4CCOC4)c3n2)CC1` was tested. Which % of control [8] did it give?
**A.** 100%

**Q.** How did the % of inhibition [9] turn out when `CC[C@@H]1[C@H](F)C(=O)N[C@@H]1COc1nccc2cc(C(N)=O)c(OC)cc12` [ZIMLOVISERTIB] was run?
**A.** -8.5%

**Q.** And the % of inhibition [10]?
**A.** 6.17%

**Q.** With `CN(C)C/C=C/C(=O)Nc1ccc(C(=O)N2CCCC(Nc3ncc(Cl)c(-c4c[nH]c5ccccc45)n3)C2)cc1` (configuration not stated) as the molecule, how does the % of control [11] read?
**A.** 58%
